In US20200345013A1, “ANTI-ADHERENT BOTANICAL COMPOSITIONS” (priority 2014, published 2020):

Experiments:
K. pneumoniae = assay: High Throughput Anti-adherent Test, polystyrene, one-hour adhesion, K. pneumoniae; type: cell-based, Klebsiella pneumoniae; conditions: agent 5% in water; percentage of microbes that remain attached to treated polystyrene; low = stronger anti-adherent effect; average +/- SD, n = 2
Source text: (§1) The botanical extracts listed in Table 3 were initially screened for their effect against microbial adhesion using the High Throughput Anti-adherent Test Method described below. The effect of the botanical filtrates as the percentage of control-corrected A490 is shown. For bacterial strains, the corrected A490 were all less than 20% of the untreated control. For C. albicans, the corrected A490 of the botanical filtrates were less than 70% of the untreated control. The lower percentage value indicates a stronger inhibitory effect.
(§2) II. High Throughput Anti-Adherence Test Method
(§3) This test method specifies the operational parameters required to grow and or prevent the formation of bacterial attachment using a high throughput screening assay. The assay device consists of a plastic lid with ninety-six (96) pegs and a corresponding receiver plate with ninety-six (96) individual wells that have a maximum 200 μL working volume. Biofilm is established on the pegs under static batch conditions (i.e., no flow of nutrients into or out of an individual well). • 1. […]

[1] = tested on: Staphylococcus aureus CICC 10384 (ATCC 6538P); assay: Screening anti-adhesion effect on porcine skin, S. aureus; type: cell-based
Procedure: Preparation of Bacterial Cell Suspensions • 1. Klebsiella pneumonia CICC 21519 (ATCC 4352) and Staphylococcus aureus CICC 10384 (ATCC 6538P) were purchased from China Center of Industrial Culture Collection. • 2. Stock culture of each species was streaked onto TSA plate (OXOID, […], England) and incubated at 37° C. overnight. • 3. Single colonies were subcultured in TSB (OXOID, […], England) and incubated 37° C., 200 rpm overnight. • 4. Dilutions of overnight cultures in PBS buffer were used for the screening.
Screening the Anti-Adhesion Effect of Botanicals/Compounds on Porcine Skin • 1. Porcine skins were aseptically cut to squares of 2×2 cm, and each was placed in a sterile Petri dish (CITOTEST LABWARE MANUFACTURING CO., LTD, Haimen, Jiangsu). • 2. Aliquots (100 μL) of botanical/compounds suspensions were applied to porcine skins, three replicates. • 3. Skins were allowed to air dry for 2 hours at ˜50% relative humidity. • 4. Inocula (100 μL) were applied to the porcine skin, and incubated at 37° C. for 2 hours. • 5. […] After incubation, colonies on plates were counted. Reduction (%) of colony forming unit (CFU) from the average counts on untreated skin was calculated. • 9. […] After incubation, plaques on plates were counted. • d. Reduction (%) of plaque forming unit (PFU) from the average counts on untreated skin was calculated.

[2] = tested on: Klebsiella pneumonia CICC 21519 (ATCC 4352); assay: Screening anti-adhesion effect on porcine skin, K. pneumoniae; type: cell-based, Klebsiella pneumoniae; conditions: two-hour adhesion time, Table 2
Procedure: Klebsiella pneumonia CICC 21519 (ATCC 4352) and Staphylococcus aureus CICC 10384 (ATCC 6538P) were purchased from China Center of Industrial Culture Collection. • 2. […] Dilutions of overnight cultures in PBS buffer were used for the screening.
Aliquots (100 μL) of botanical/compounds suspensions were applied to porcine skins, three replicates. • 3. Skins were allowed to air dry for 2 hours at ˜50% relative humidity. • 4. Inocula (100 μL) were applied to the porcine skin, and incubated at 37° C. for 2 hours. • 5. The skins were washed three times by applying 5 ml of PBS+0.01% Tween 80 onto the skins and then removing the liquid by pipetting. • 6. […] Microbial cells were enumerated by spread plate method. • a. […] For S. aureus and K. pneumoniae, the suspension and dilutions were plated onto TSA, and incubated at 37° C. for 1 day. • 8. After incubation, colonies on plates were counted. Reduction (%) of colony forming unit (CFU) from the average counts on untreated skin was calculated. • 9.

S. aureus = assay: High Throughput Anti-adherent Test, polystyrene, one-hour adhesion, S. aureus; type: cell-based, Staphylococcus aureus; conditions: agent 5% in water; percentage of microbes that remain attached to treated polystyrene; low = stronger anti-adherent effect; average +/- SD, n = 2
Source text: as §1, §2, §3

C. albicans SC5314 = assay: Screening anti-adhesion effect on porcine skin, C. albicans; type: cell-based, Candida albicans; conditions: agent 5% in water, 2 h adhesion, average +/- SD, n = 2, positive = anti-adherent
Procedure: Preparation of C. albicans Cell Suspension • 1. Single cell suspension of C. albicans SC5314 was prepared as follows. Stock culture of C. albicans SC5314 was streaked onto YPD agar (YPDA) and incubated at 30° C. overnight. • 2. Single colonies were subcultured in YPD broth (YPDB) and incubated 30° C., 200 rpm overnight. • 3. Overnight culture in YPDB was subcultured in YPD broth again and incubated 30° C., 200 rpm for 48 hours. • 4. Cells were collected by centrifugation (4000×g, 10 minutes) at 4° C., washed three times with sterile water, and then resuspended in sterile water a final concentration of 10^9 CFU/mL. • 5. The suspension were stored at 4° C. at least 1 day, then subcultured into YPDB to a final concentration of 10^6 CFU/mL. • 6. After 48 hours incubation, cell suspension was examined under microscope for single cell percentage. • 7. […]
Screening the Anti-Adhesion Effect of Botanicals/Compounds on Porcine Skin • 1. […] After incubation, colonies on plates were counted. Reduction (%) of colony forming unit (CFU) from the average counts on untreated skin was calculated. • 9. […] After incubation, plaques on plates were counted. • d. Reduction (%) of plaque forming unit (PFU) from the average counts on untreated skin was calculated.

C. albicans = assay: High Throughput Anti-adherent Test, polystyrene, one-hour adhesion, C. albicans; type: cell-based, Candida albicans; conditions: agent 5% in water; percentage of microbes that remain attached to treated polystyrene; low = stronger anti-adherent effect; bracketed = adherent effect; * = single measurement, else n = 2
Source text: as §1, §2, §3

## Oc1ccc(C=Cc2cc(O)cc(O)c2)cc1 [Resveratrol]
K. pneumoniae
  Reduction of Adherent Cells (%) from Polystyrene Control (One-Hour Adhesion Time), K. pneumoniae: 7.0 ± 2.8%
[1]; agent 5% in water, 2 h adhesion, average +/- SD, n = 2, positive = anti-adherent
  Reduction of Adherent Cells (%) from Porcine Skin Control (Two-Hour Adhesion Time), S. aureus: −4.2 ± 19.1%
[1]; two-hour adhesion time, Table 2
  Anti-adherence on porcine skin in words, S. aureus: failed to demonstrate anti-adherence
[2]
  Anti-adherence on porcine skin in words, K. pneumonia: failed to demonstrate anti-adherence
S. aureus
  Reduction of Adherent Cells (%) from Polystyrene Control (One-Hour Adhesion Time), S. aureus: 8.0 ± 9.9%
C. albicans SC5314
  Reduction of Adherent Cells (%) from Porcine Skin Control (Two-Hour Adhesion Time), C. albicans: 29.8 ± 11.2%
C. albicans
  Reduction of Adherent Cells (%) from Polystyrene Control (One-Hour Adhesion Time), C. albicans: 25.5 ± 4.9%
